# Target: USP9X (Homo sapiens (Human), UniProt Q93008)
# Assay: USP9X enzyme activity assay, ubiquitin-rhodamine110 substrate
# Conditions: Table 8
# Method: The inhibition property of compound Compound 1A was evaluated in assays measuring the ability of USP9X to catalyze the hydrolysis of the amide bond between the C terminal carboxylate of ubiquitin and rhodamine110 of the fluorogenic substrate ubiquitin-rhodamine 110. To the wells of a 96 well reaction plate was added 12.5 μL USP9X solution (1.3 nM) in assay buffer (100 mM NaCl, 1 mM DTT, 0.1% bovine serum albumin, 0.05% Tween 20, 50 mM Tris, pH 7.5). 12.5 μL of Compound 1A in assay buffer (4×final concentration) was added to the wells containing the USP9X solution, and the solution was gently mixed by pipetting up and down several times. The plate was sealed and incubated at room temperature for 20 minutes.
# Then 25 μL of the 1 μM substrate (ubiquitin-rhodaminel10) solution was added in assay buffer. The final substrate concentration was 0.5 μM. […] The slope for the rate of change of the fluorescence was determined and plotted vs the concentration of Compound 1A.
# USP9X enzyme assays were set up in a 96 well plate to assess the abilities of Compound 3A and Compound 4A to inhibit the activity of USP9X, respectively. Ubiquitin-rhodamine110 was used as the substrate and ubiquitin aldehyde was included in the assay as a positive control.
# Purified recombinant USPx9 (R&D Systems) in 50 mM Tris buffer pH 7.5, 1 mM DTT, 100 mM NaCl, 0.05% Tween 20 and 0/1% BSA is used at a concentration of 0.325 nM with 0.5 μM ubiquitin-rhodamine (R&D Systems).
# Chain of USP9X (Q93008 whole entry): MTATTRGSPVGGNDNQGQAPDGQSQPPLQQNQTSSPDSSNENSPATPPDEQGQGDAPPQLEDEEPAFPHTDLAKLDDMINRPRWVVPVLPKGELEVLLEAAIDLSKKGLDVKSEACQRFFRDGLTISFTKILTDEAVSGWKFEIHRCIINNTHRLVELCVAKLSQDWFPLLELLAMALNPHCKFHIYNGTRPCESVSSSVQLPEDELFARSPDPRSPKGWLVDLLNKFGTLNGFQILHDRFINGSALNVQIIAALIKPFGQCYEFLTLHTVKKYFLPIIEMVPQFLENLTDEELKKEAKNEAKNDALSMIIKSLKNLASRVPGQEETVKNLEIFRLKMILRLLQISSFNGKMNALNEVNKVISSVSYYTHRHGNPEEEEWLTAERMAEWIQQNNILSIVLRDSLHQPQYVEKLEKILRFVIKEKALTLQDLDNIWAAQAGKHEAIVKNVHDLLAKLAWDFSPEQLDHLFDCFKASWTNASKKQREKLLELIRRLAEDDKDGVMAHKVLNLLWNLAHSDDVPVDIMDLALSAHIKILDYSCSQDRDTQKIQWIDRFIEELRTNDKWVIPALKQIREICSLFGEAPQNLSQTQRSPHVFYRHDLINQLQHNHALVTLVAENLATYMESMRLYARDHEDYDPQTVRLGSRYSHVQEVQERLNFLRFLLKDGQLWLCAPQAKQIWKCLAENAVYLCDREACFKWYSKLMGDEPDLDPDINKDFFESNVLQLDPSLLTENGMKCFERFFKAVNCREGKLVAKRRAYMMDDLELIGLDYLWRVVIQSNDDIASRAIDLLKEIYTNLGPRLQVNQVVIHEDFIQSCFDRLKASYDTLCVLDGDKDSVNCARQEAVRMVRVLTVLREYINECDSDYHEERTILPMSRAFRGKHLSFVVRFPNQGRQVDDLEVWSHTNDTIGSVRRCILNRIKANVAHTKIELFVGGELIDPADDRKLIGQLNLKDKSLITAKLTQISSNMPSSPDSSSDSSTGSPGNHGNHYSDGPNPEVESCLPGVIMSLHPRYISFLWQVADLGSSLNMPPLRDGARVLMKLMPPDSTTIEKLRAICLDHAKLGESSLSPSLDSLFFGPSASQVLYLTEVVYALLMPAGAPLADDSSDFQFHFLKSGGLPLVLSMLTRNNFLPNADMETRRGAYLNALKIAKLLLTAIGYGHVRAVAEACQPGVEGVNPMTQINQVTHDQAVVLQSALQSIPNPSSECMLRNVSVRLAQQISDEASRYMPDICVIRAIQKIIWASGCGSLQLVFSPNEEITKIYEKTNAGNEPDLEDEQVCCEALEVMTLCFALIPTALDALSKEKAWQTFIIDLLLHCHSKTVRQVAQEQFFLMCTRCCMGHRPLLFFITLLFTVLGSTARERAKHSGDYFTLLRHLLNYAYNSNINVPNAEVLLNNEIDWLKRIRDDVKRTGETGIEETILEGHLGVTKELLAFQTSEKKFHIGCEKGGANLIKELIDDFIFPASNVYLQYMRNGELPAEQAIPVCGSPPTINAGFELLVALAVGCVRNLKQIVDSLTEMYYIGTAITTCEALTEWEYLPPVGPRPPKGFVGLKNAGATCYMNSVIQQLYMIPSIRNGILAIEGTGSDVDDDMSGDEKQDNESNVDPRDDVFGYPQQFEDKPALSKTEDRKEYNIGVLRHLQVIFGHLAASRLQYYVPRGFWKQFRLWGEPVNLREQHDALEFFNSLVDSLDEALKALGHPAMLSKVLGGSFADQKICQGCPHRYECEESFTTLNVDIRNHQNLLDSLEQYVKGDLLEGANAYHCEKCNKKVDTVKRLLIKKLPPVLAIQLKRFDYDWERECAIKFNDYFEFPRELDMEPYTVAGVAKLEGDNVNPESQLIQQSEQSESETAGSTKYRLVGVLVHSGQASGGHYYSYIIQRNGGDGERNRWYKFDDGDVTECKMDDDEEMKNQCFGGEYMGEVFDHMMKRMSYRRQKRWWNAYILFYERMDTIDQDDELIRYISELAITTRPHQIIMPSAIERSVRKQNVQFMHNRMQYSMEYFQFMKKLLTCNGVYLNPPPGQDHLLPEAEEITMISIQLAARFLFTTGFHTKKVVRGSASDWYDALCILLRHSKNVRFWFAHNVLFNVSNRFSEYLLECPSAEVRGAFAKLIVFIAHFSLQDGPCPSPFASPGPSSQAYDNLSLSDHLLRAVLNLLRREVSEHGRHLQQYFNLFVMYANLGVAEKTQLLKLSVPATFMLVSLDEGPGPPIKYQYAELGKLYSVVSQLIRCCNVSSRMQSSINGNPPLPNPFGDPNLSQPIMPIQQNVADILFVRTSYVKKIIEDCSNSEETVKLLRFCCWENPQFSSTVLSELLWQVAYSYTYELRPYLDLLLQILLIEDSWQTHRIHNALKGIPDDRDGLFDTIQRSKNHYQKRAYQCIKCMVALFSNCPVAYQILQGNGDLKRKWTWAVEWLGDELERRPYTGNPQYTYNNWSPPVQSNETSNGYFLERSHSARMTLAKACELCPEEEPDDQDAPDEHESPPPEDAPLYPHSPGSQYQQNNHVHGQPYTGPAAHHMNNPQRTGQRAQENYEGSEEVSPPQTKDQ
row,Structure (SMILES),USP9X IC50/UM
1,CN(C)CCOc1ccc(C(=O)NCc2cccc(C(=O)N[C@@H](CC(C)(C)C)C(=O)N(C)Cc3ccccc3)c2)cc1 [Compound 26],>50 UM
2,CN(C)CCOc1ccc(C(=O)NCc2cccc(C(=O)N[C@@H](CC(C)(C)C)C(=O)NCc3ccccc3F)c2)cc1 [Compound 27],>50 UM
3,CNCCOc1ccc(C(=O)NCc2cccc(C(=O)N[C@@H](CC(C)(C)C)C(=O)Nc3ccc(CCC(=O)O)cc3)c2)cc1 [Compound 30],>50 UM
4,CNCCOc1ccc(C(=O)NCc2cccc(C(=O)N[C@@H](CC(C)C)C(=O)Nc3ccc(CCC(=O)O)cc3)c2)cc1 [Compound 32],>50 UM
5,CNCCOc1ccc(C(=O)NCc2cccc(C(=O)N[C@@H](C)C(=O)Nc3ccc(CCC(=O)O)cc3)c2)cc1 [Compound 33],>50 UM
6,CNCCOc1ccc(C(=O)NCc2cccc(C(=O)N3CCCC3C(=O)Nc3ccc(CCC(=O)O)cc3)c2)cc1 (centres unmarked) [Compound 36],>50 UM
7,CNCCOc1ccc(C(=O)NCc2cccc(C(=O)N[C@@H](CC3CCCCC3)C(=O)Nc3ccc(CCC(=O)O)cc3)c2)cc1 [Compound 37],>50 UM
8,CC(C)(C)C[C@H](NC(=O)c1cccc(CNC(=O)c2ccc(OCCNC(=O)CC(C)(C)CC(=O)NCCc3ccc(N)cc3)cc2)c1)C(=O)O [Compound 66],>50 UM
9,CC(=O)Nc1ccc(CCNC(=O)CC(C)(C)CC(=O)NCCOc2ccc(C(=O)NCc3cccc(C(=O)N[C@@H](CC(C)(C)C)C(=O)O)c3)cc2)cc1 [Compound 67],>50 UM
10,CNC(=O)[C@H](CC(C)(C)C)NC(=O)c1cccc(CNC(=O)c2ccc(OCCNC(=O)CC(C)(C)CC(=O)NCCc3ccc(NC(C)=O)cc3)cc2)c1 [Compound 68],>50 UM
11,CC(C)(C)C[C@H](N)C(=O)Nc1ccc(CCNC(=O)CC(C)(C)CC(=O)NCCOc2ccc(C(=O)NCc3cccc(C(=O)O)c3)cc2)cc1 [Compound 69],>50 UM
12,CC(=O)N[C@@H](CC(C)(C)C)C(=O)Nc1ccc(CCNC(=O)CC(C)(C)CC(=O)NCCOc2ccc(C(=O)NCc3cccc(C(=O)O)c3)cc2)cc1 [Compound 70],>50 UM

# Same assay, conditions: higher concentrations of compound (>10 μM)
row,Structure (SMILES),reduction of USP9X activity
1,COCCNC(=O)[C@@H]1Cc2ccc(cc2)NC(=O)[C@H](CC(C)(C)C)NC(=O)c2cccc(c2)CNC(=O)c2ccc(cc2)OCCNC(=O)CC(C)(C)CC(=O)N1 [Compound 3A],approximately 60%
2,CC(C)(C)C[C@@H]1NC(=O)c2cccc(c2)CNC(=O)c2ccc(cc2)OCCNC(=O)CCCCC(=O)N[C@H](C(=O)O)Cc2ccc(cc2)NC1=O [Compound 4A],approximately 60%

# Same assay, conditions: read-out: USP9X IC50/UM; Table 8
row,Structure (SMILES),IC50
1,CNCCOc1ccc(C(=O)NCc2cccc(C(=O)N[C@@H](CC(C)(C)C)C(=O)Nc3ccc(CC(NC(=O)CC(C)(C)CC(=O)O)C(=O)OC)cc3)c2)cc1 (some centres unmarked) [Compound 1],530 nM
2,CNCCOc1ccc(C(=O)NCc2cccc(C(=O)N[C@@H](CC(C)(C)C)C(=O)Nc3ccc(CCNC(=O)CC(C)(C)CC(=O)O)cc3)c2)cc1 [Compound 2],180 nM
3,CNCCOc1ccc(C(=O)NCc2cccc(C(=O)N[C@@H](CC(C)(C)C)C(=O)Nc3ccc(CCC(=O)O)cc3)c2)cc1 [Compound 3],280 nM
4,CNCCOc1ccc(C(=O)NCc2cccc(C(=O)N[C@@H](CC(C)(C)C)C(=O)Nc3ccc(CN4CCCC4)cc3)c2)cc1 [Compound 4],54 nM
5,CN(C)CCOc1ccc(C(=O)NCc2cccc(C(=O)N[C@@H](CC(C)(C)C)C(=O)Nc3ccc(CN4CCCC4)cc3)c2)cc1 [Compound 5],55 nM
6,CNCCOc1ccc(C(=O)NCc2cccc(C(=O)N[C@@H](CC(C)(C)C)C(=O)Nc3ccc(CCc4ccccn4)cc3)c2)cc1 [Compound 6],700 nM
7,CN(C)CCOc1ccc(C(=O)NCc2cccc(C(=O)N[C@@H](CC(C)(C)C)C(=O)Nc3ccc(CCc4ccccn4)cc3)c2)cc1 [Compound 7],590 nM
8,CNCCOc1ccc(C(=O)NCc2cccc(C(=O)N[C@@H](CC(C)(C)C)C(=O)Nc3cccc(Cn4cccn4)c3)c2)cc1 [Compound 8],1100 nM
9,CN(C)CCOc1ccc(C(=O)NCc2cccc(C(=O)N[C@@H](CC(C)(C)C)C(=O)Nc3cccc(Cn4cccn4)c3)c2)cc1 [Compound 9],150 nM
10,CNCCOc1ccc(C(=O)NCc2cccc(C(=O)N[C@@H](CC(C)(C)C)C(=O)Nc3ccc(Cn4ccnc4)cc3)c2)cc1 [Compound 10],91 nM
11,CN(C)CCOc1ccc(C(=O)NCc2cccc(C(=O)N[C@@H](CC(C)(C)C)C(=O)Nc3ccc(Cn4ccnc4)cc3)c2)cc1 [Compound 11],80 nM
12,CNCCOc1ccc(C(=O)NCc2cccc(C(=O)N[C@@H](CC(C)(C)C)C(=O)Nc3ccc(CC(F)(F)F)cc3)c2)cc1 [Compound 12],1300 nM
13,CN(C)CCOc1ccc(C(=O)NCc2cccc(C(=O)N[C@@H](CC(C)(C)C)C(=O)Nc3ccc(CCN(C)C)cc3)c2)cc1 [Compound 13],44 nM
14,CN(C)CCOc1ccc(C(=O)NCc2cccc(C(=O)N[C@@H](CC(C)(C)C)C(=O)Nc3ccc(CCN4CCOCC4)cc3)c2)cc1 [Compound 14],120 nM
15,CN(C)CCNC(=O)[C@H](CC(C)(C)C)NC(=O)c1cccc(CNC(=O)c2ccc(OCCN(C)C)cc2)c1 [Compound 15],23000 nM
16,CN(C)CCCNC(=O)[C@H](CC(C)(C)C)NC(=O)c1cccc(CNC(=O)c2ccc(OCCN(C)C)cc2)c1 [Compound 16],18000 nM
17,CN(C)CCOc1ccc(C(=O)NCc2cccc(C(=O)N[C@@H](CC(C)(C)C)C(=O)NCCN3CCCC3)c2)cc1 [Compound 19],8000 nM
18,CN(C)CCOc1ccc(C(=O)NCc2cccc(C(=O)N[C@@H](CC(C)(C)C)C(=O)Nc3ccc4nccn4c3)c2)cc1 [Compound 20],63 nM
19,Cc1ccc(NC(=O)[C@H](CC(C)(C)C)NC(=O)c2cccc(CNC(=O)c3ccc(OCCN(C)C)cc3)c2)cc1 [Compound 22],420 nM
20,COc1ccc(NC(=O)[C@H](CC(C)(C)C)NC(=O)c2cccc(CNC(=O)c3ccc(OCCN(C)C)cc3)c2)cc1 [Compound 23],240 nM
21,COC(=O)c1cc(NC(=O)[C@H](CC(C)(C)C)NC(=O)c2cccc(CNC(=O)c3ccc(OCCN(C)C)cc3)c2)ccc1C [Compound 24],66 nM
22,COC(=O)c1cccc(NC(=O)[C@H](CC(C)(C)C)NC(=O)c2cccc(CNC(=O)c3ccc(OCCN(C)C)cc3)c2)c1 [Compound 25],68 nM

row,Structure (SMILES),IC50
1,CN(C)CCOc1ccc(C(=O)NCc2cccc(C(=O)N[C@@H](CC(C)(C)C)C(=O)NCc3ccccn3)c2)cc1 [Compound 28],32000 nM
2,CNCCOc1ccc(C(=O)NCc2cccc(C(=O)N[C@@H](CC(C)C)C(=O)Nc3ccc(CCC(=O)O)cc3)c2)cc1 [Compound 31],6000 nM
3,CNCCOc1ccc(C(=O)NCc2cccc(C(=O)N3CCCC3C(=O)Nc3ccc(CCC(=O)O)cc3)c2)cc1 (centres unmarked) [Compound 35],7000 nM
4,CNC(=O)CCc1ccc(NC(=O)[C@H](CC(C)(C)C)NC(=O)c2cc(CNC(=O)c3ccc(OCCN(C)C)cc3)ccc2F)cc1 [Compound 41],90 nM
5,CNC(=O)CCc1ccc(NC(=O)[C@H](CC(C)(C)C)NC(=O)c2cccc(CNC(=O)c3ccc(OC)cc3)c2)cc1 [Compound 42],1300 nM
6,CNC(=O)CCc1ccc(NC(=O)[C@H](CC(C)(C)C)NC(=O)c2cc(CNC(=O)c3ccc(OC)cc3)ccc2F)cc1 [Compound 43],760 nM
7,COc1ccc(C(=O)NCc2cccc(C(=O)N[C@@H](CC(C)(C)C)C(=O)Nc3ccc(CCN(C)C)cc3)c2)cc1 [Compound 44],240 nM
8,CNC(=O)CCc1ccc(NC(=O)[C@H](CC(C)(C)C)NC(=O)c2cccc(CNC(=O)c3ccccc3)c2)cc1 [Compound 45],2100 nM
9,CN(C)CCc1ccc(NC(=O)[C@H](CC(C)(C)C)NC(=O)c2cccc(CNC(=O)c3ccccc3)c2)cc1 [Compound 47],320 nM
10,CNC(=O)CCc1ccc(NC(=O)[C@H](CC(C)(C)C)NC(=O)c2cccc(CNC(C)=O)c2)cc1 [Compound 48],8900 nM
11,CNC(=O)CCc1ccc(NC(=O)[C@H](CC(C)(C)C)NC(=O)c2cc(CNC(C)=O)ccc2F)cc1 [Compound 49],5000 nM
12,CC(=O)NCc1cccc(C(=O)N[C@@H](CC(C)(C)C)C(=O)Nc2ccc(CCN(C)C)cc2)c1 [Compound 50],2300 nM
13,CNCCOc1ccc(C(=O)NCc2ccc(F)c(C(=O)N[C@@H](CC(C)(C)C)C(=O)Nc3ccc(CCC(=O)O)cc3)c2)cc1 [Compound 53],360 nM
14,COc1ccc(C(=O)NCc2cccc(C(=O)N[C@@H](CC(C)(C)C)C(=O)Nc3ccc(CCC(=O)O)cc3)c2)cc1 [Compound 55],4700 nM
15,CC(C)(C)C[C@H](NC(=O)c1cccc(CNC(=O)c2ccccc2)c1)C(=O)Nc1ccc(CCC(=O)O)cc1 [Compound 57],7000 nM
16,CC(C)(C)C[C@H](NC(=O)c1cc(CNC(=O)c2ccccc2)ccc1F)C(=O)Nc1ccc(CCC(=O)O)cc1 [Compound 58],4900 nM
17,CC(=O)NCc1ccc(F)c(C(=O)N[C@@H](CC(C)(C)C)C(=O)Nc2ccc(CCC(=O)O)cc2)c1 [Compound 60],13000 nM
18,CC(C)(C)C[C@H](NC(=O)c1cccc(CNC(=O)c2ccc(OCCO)cc2)c1)C(=O)Nc1ccccc1 [Compound 61],5800 nM
19,Cc1ccc(NC(=O)[C@H](CC(C)(C)C)NC(=O)c2cccc(CNC(=O)c3ccc(OCCO)cc3)c2)cc1 [Compound 62],6900 nM
20,CC(C)(C)C[C@H](NC(=O)c1cccc(CNC(=O)c2ccc(OCCO)cc2)c1)C(=O)Nc1ccc(CCN)cc1 [Compound 63],220 nM
21,CC(=O)NCCc1ccc(NC(=O)[C@H](CC(C)(C)C)NC(=O)c2cccc(CNC(=O)c3ccc(OCCO)cc3)c2)cc1 [Compound 64],650 nM
22,CC(C)(C)CC(=O)NCCc1ccc(NC(=O)[C@H](CC(C)(C)C)NC(=O)c2cccc(CNC(=O)c3ccc(OCCO)cc3)c2)cc1 [Compound 65],600 nM

# Same assay, conditions: ubiquitin-rhodamine110 substrate
row,Structure (SMILES),effect on USP9X activity
1,"CN1CCOc2ccc(cc2)C(=O)NCc2ccc(F)c(c2)C(=O)N[C@@H](CC(C)(C)C)C(=O)Nc2ccc(cc2)CCN(C)C(=O)CCC(C)(C)CCC1=O [Compound 1A, (S)-5^4-fluoro-14,18,18,22-tetramethyl-S-neopentyl-25-oxa-3,7,10,14,22-pentaaza-1,11(1,4),5(1,3)-tribenzenacyclopentacosaphane-2,6,9,15,21-pentaone]",partially inhibited
